In patent US8835440B2, “Cyclic pyrimidin-4-carboxamides as CCR2 receptor antagonists for treatment of inflammation, asthma and COPD” (Boehringer Ingelheim International GmbH, priority 2008, dated 2014):

Target: T1, CCR2 (Homo sapiens, UniProt P41597)
T1 construct: Membranes were prepared from THP-1 cells; endogenous in cells; host or cells: THP-1 cells (membrane preparation)
T1 sequence (P41597 1-360 isoform P41597-2): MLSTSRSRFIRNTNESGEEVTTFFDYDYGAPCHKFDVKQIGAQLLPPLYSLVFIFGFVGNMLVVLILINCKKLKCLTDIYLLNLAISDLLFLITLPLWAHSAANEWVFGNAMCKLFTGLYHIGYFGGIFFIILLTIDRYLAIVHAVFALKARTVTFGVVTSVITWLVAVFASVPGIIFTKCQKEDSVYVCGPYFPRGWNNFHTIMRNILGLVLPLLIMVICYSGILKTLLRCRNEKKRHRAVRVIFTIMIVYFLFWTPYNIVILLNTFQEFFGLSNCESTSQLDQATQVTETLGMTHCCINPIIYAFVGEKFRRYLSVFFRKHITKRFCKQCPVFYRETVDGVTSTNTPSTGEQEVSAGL
Test: CCR2 receptor membrane binding assay ([125I]MCP-1, THP-1 cell membranes, SPA beads)
Settings: for remaining activity at 10 µM: @ 10 μM test compound, THP-1 membranes, read-out: CCR2 % ctrl @ 10 μM; for Ki: dissociation constant hKi, [125I]MCP-1 binding to THP-1 membranes
Protocol: The above exemplary substances have been tested for binding to CCR2 using a binding assay as outlined herein below:
THP-1 cells (human acute monocytic leukaemia cells) were cultured under standardized conditions at 37° C. and 5% CO2 in a humidified incubator. THP-1 cells were cultivated in RPMI 1640 medium (Gibco 21875) containing 1% MEM-NEAA (Gibso 11140) 2 mM L-glutamine, 1.5 g/L sodium bicarbonate, 4.5 g/L glucose, 10 mM HEPES and 1.0 mM sodium pyruvate, 90%; 10% fetal calf serum (FCS Gibco 10500-064).
Membranes were prepared from THP-1 cells. THP-1 cells were centrifuged at 300×g at 4° C. for 10 min. The cell pellet was resuspendet in Phosphate Buffer Saline (PBS, including 10 μM Pefabloc and a protease inhibitor mix ‘complete’, Boehringer Mannheim (1 tablet/50 ml)), to a concentration of […]. The membrane preparation was performed by disrupting the cells by nitrogen […] (at 50 bar, for 1 h) in a “Nitrogen Bombe” (Parr Instrument). Cell debris was removed by centrifugation (800×g at 4° C., 1 min). The supernatant was centrifuged at 80000×g, 4° C. for 30 min to sediment the cell membranes. Usually 50 mg of protein (Bradford assay) were yielded from 1×10E9 cells. The membranes were resuspendet in 25 mM HEPES, 25 mM MgCl2, 1 mM CaCl2, 10% Glycerine for storage in aliquots at −80° C. in 25 mM HEPES, 25 mM MgCl2, 1 mM CaCl2, 10% Glycerine and stored at −80° C.
Receptor Membrane Binding Assay:
Perkin Elmer NEX 332 Jod 125 MCP-1, Stock: 2200 Ci/mmol solved in 2000 μl assay buffer, stored at −20° C. THP-1 membrane were adjusted with 25 mM HEPES, pH 7.2; 5 mM MgCl2; 0.5 mM CaCl2; 0.2% BSA assay buffer to a concentration of […]. Amersham Biosciences PVT-WGA Beads (RPNQ0001) were adjusted with assay buffer to a concentration of 0.24 mg/30 μl. For preparation of the membrane-bead-suspension membranes and beads were incubated for 30 min at RT under rotation (60 rpm) with a ratio of 1:2. Test compounds dissolved in 100% DMSO to a concentration of 10 mM and are further diluted with 100% DMSO to 1 mM. All additional compound dilutions were obtained with assay buffer, final 1% DMSO. Compounds, membrane-bead-suspension and [125I]MCP-1 (ca. 25000 cpm/10 μl) were incubated. Bound radioactivity was determined by scintillation counter after 8 h. Determination of affinity of test compounds (dissociation constant hKi) is calculated by iterative fitting of experimental data using the “easy sys” program, which is based on law of mass action (Schittkowski K. (1994), Numerische Mathematik, Vol. 68, 129-142).

SMILES | remaining activity at 10 µM | Ki
Cc1c(NCc2ccc(Cl)cc2)ncnc1C(=O)N1CCC(N2CCCCC2)CC1 [Example 127] | 35% | 665 nM
Cc1c(NCc2ccc(F)c(F)c2)ncnc1C(=O)N1CCC(N2CCOCC2)CC1 [Example 48] | 26% | 1780 nM
Cc1c(NCC2CCN(c3ccccc3)C2)ncnc1C(=O)N1CCC(N2CCOCC2)CC1 (centres unmarked) [Example 51] | 13% | 290 nM
Cc1c(Oc2ccc(C(C)(C)C)cc2)ncnc1C(=O)N1CCC(N2CCC(N(C)S(C)(=O)=O)CC2)CC1 [Example 291] | 32% | 3120 nM
Cc1c(NCc2ccc(C(C)(C)C)cc2)ncnc1C(=O)N1CCC(N2CCC(N(C)S(C)(=O)=O)CC2)CC1 [Example 1] | 1% | 32 nM
CCc1ccc(CNc2ncnc(C(=O)N3CCC(N4CCC(N(C)S(C)(=O)=O)CC4)CC3)c2C)cc1 [Example 56] | 8% | 127 nM
Cc1c(NCC2CCCC(C)(C)C2)ncnc1C(=O)N1CCC(N2CCC(N(C)S(C)(=O)=O)CC2)CC1 (centres unmarked) [Example 159h] | – | 39 nM
Cc1c(NC[C@@H]2CC[C@@H](c3ccc(C(F)(F)F)cc3)O2)ncnc1C(=O)N1CCC(N2CCC(N(C)S(C)(=O)=O)CC2)CC1 [Example 159ma] | – | 20 nM
Cc1c(NCCc2ccc(Cl)c(Cl)c2)ncnc1C(=O)N1CCC(N2CC[C@@H](O)C2)CC1 [Example 165] | 15% | 222 nM
Cc1c(NCc2ccc(Cl)c(F)c2)ncnc1C(=O)N1CCC(N2CCOCC2)CC1 [Example 45] | 17% | 501 nM
Cc1ccc(CNc2ncnc(C(=O)N3CCC(N4CCC(O)CC4)CC3)c2C)cc1F [Example 120] | 30% | 499 nM
Cc1c(NCCc2ccc(C(C)(C)C)cc2)ncnc1C(=O)N1CCC(N2CCC(N(C)S(C)(=O)=O)CC2)CC1 [Example 153] | 1% | 27 nM
Cc1c(NCCc2cccc(Cl)c2)ncnc1C(=O)N1CCC(N2CCC(O)CC2)CC1 [Example 122] | 23% | 415 nM
Cc1c(NCc2cccc(-c3ccccc3)c2)ncnc1C(=O)N1CCC(N2CCC(O)CC2)CC1 [Example 102] | 15% | 224 nM
Cc1c(NCc2cccc(Cl)c2)ncnc1C(=O)N1CCC(N2CCC(N(C)S(C)(=O)=O)CC2)CC1 [Example 66] | 8% | 138 nM
Cc1c(NCc2ccc(Cl)c(C(F)(F)F)c2)ncnc1C(=O)N1CCC(N2CCC(O)CC2)CC1 [Example 125] | 25% | 446 nM
CNC(=O)C1CCN(C2CCN(C(=O)c3ncnc(NCC4CCN(c5ccccc5)C4)c3C)CC2)CC1 (centres unmarked) [Example 93] | 6% | 123 nM
Cc1c(NC[C@@H]2CC[C@H](c3ccc(C(F)(F)F)cc3)O2)ncnc1C(=O)N1CCC(N2CCC(N(C)S(C)(=O)=O)CC2)CC1 [Example 159la] | – | 19 nM
Cc1nc(NCc2ccc(C(F)(F)F)c(Cl)c2)c(C)c(C(=O)N2CCC(N3CCC(N(C)S(C)(=O)=O)CC3)CC2)n1 [Example 81] | 8% | 52 nM
Cc1ccc([C@H]2CC[C@H](CNc3ncnc(C(=O)N4CCC(N5CCC(N(C)S(C)(=O)=O)CC5)CC4)c3C)O2)cc1 [Example 159gb] | – | 39 nM
Cc1c(NCCc2ccc(OC(F)(F)F)cc2)ncnc1C(=O)N1CCC(N2CCC(NS(C)(=O)=O)CC2)CC1 [Example 70] | 6% | 80 nM
Cc1c(NCC2CCC(c3ccc(F)cc3)C2)ncnc1C(=O)N1CCC(N2CCC(N(C)S(C)(=O)=O)CC2)CC1 (centres unmarked) [Example 159q] | – | 10 nM
Cc1c(NCc2ccc(OC(F)(F)F)cc2)ncnc1C(=O)N1CCC(N2CCC(O)CC2)CC1 [Example 5] | 26% | 616 nM
Cc1c(NCC2CCc3ccccc32)ncnc1C(=O)N1CCC(N2CCC(N(C)S(C)(=O)=O)CC2)CC1 (centres unmarked) [Example 159x] | – | 147 nM
Cc1c(NCc2ccc(C(C)(C)C)cc2)ncnc1C(=O)N1CCCC(N2CCCC2)CC1 (centres unmarked) [Example 163] | 32% | 1560 nM
Cc1c(NC[C@H]2CCC[C@H](c3ccccc3)C2)ncnc1C(=O)N1CCC(N2CCC(N(C)S(C)(=O)=O)CC2)CC1 [Example 150] | 3% | 12 nM
Cc1c(NCCc2ccc(Cl)c(Cl)c2)ncnc1C(=O)N1CCC(N2CCC(N(C)S(C)(=O)=O)CC2)CC1 [Example 53] | 4% | 18 nM

Next, values leading:

remaining activity at 10 µM | Ki | SMILES
53% | 4210 nM | CO[C@H]1CN(C2CCN(C(=O)c3ncnc(NCc4ccc(Cl)c(Cl)c4)c3C)CC2)CC[C@H]1NS(C)(=O)=O [Example 185]
31% | 648 nM | CNC(=O)[C@H]1CCCN(C2CCN(C(=O)c3ncnc(NCCc4ccc(Cl)c(Cl)c4)c3C)CC2)C1 [Example 176]
0% | 29 nM | COC1COCCC1NC1CCN(C(=O)c2ncnc(NCc3ccc(C(C)(C)C)cc3)c2C)CC1 (centres unmarked) [Example 228c]
9% | 51 nM | Cc1c(NCCc2ccc(Cl)c(Cl)c2)ncnc1C(=O)N1CCC(N2CCC(NS(C)(=O)=O)CC2)CC1 [Example 168]
33% | 2550 nM | Cc1c(NCc2ccc(C(C)(C)C)cc2)ncnc1C(=O)N1CCCN(C(C)C)CC1 [Example 287]
17% | 350 nM | Cc1c(NCCc2ccc(Cl)c(Cl)c2)ncnc1C(=O)N1CCC(N2CCCC2)CC1 [Example 253]
14% | 430 nM | Cc1noc(C2CCN(C3CCN(C(=O)c4ncnc(NCc5ccc(C(C)(C)C)cc5)c4C)CC3)CC2)n1 [Example 213]
7% | 104 nM | Cc1c(NCCc2ccc(Cl)c(Cl)c2)ncnc1C(=O)N1CCC(N2CCOC(c3ccccc3)C2)CC1 (centres unmarked) [Example 240]
– | 40 nM | CO[C@H]1COCC[C@H]1NC1CCN(C(=O)c2ncnc(NC[C@H]3C[C@@H](c4ccccc4)C3)c2C)CC1 [Example 275dd]
53% | 3930 nM | Cc1c(NCc2ccc(Cl)c(Cl)c2)ncnc1C(=O)N1CCC(N2CCC3(CC2)CCN(S(C)(=O)=O)C3)CC1 [Example 188]
21% | 516 nM | Cc1c(NCc2ccc(Cl)c(Cl)c2)ncnc1C(=O)N1CCC(N2CCCOCC2)CC1 [Example 242]
3% | 26 nM | COC1COCCC1N(C)C1CCN(C(=O)c2ncnc(NCc3ccc(C(C)(C)C)cc3)c2C)CC1 (centres unmarked) [Example 275b]
13% | 738 nM | Cc1c(NCc2ccc(C(C)(C)C)cc2)ncnc1C(=O)N1CCCN(C2CCOCC2)CC1 [Example 288]
75% | 439 nM | Cc1c(NCc2ccc(C(C)(C)C)cc2)ncnc1C(=O)N1CCC(N2CCCC2)C1 (centres unmarked) [Example 251]
32% | 1260 nM | Cc1c(NCc2ccc(C(C)(C)C)cc2)ncnc1C(=O)N1CCC(N2CCCCC2)C1 (centres unmarked) [Example 250]
15% | 215 nM | Cc1c(NCCc2ccc(Cl)c(Cl)c2)ncnc1C(=O)N1CCC(N2CCC[C@@H](O)C2)CC1 [Example 231]
17% | – | CNC(=O)C1CCN(C2CCN(C(=O)c3nc(C)nc(NCc4ccc(C(C)(C)C)cc4)c3C)CC2)CC1 [Example 248]
